The source of these data is US8980909B2, “HDAC inhibiting derivatives of camptothecin” (Crystal Biopharmaceutical LLC, priority 2011, dated 2015).

One data set has as its system U251. The experiment in a line: In vitro anti-proliferation assay (ATPlite), U251. In kind it is cell-based. Particulars: for IC50: Homo sapiens, U-251, CNS Cancer, U251, 72 hours. Here is the method: (§1) Cell antiproliferation was assayed by PerkinElmer ATPlite™ Luminescence Assay System. The cancer cell lines were plated at 10 k cells per well in Costar 96-well plates with different concentration of compounds for 72 hours with […]. After that, one lyophilized substrate solution vial was reconstituted by adding 5 mL of substrate buffer solution and was agitated gently until the solution is homogeneous. 50 μL of mammalian cell lysis solution was added to 100 μL of cell suspension per well of a microplate and the plate was shaken for five minutes in an orbital shaker at 700 rpm. This procedure will lyses the cells and stabilizes the ATP. Next, 50 μL substrate solution was added to the wells and microplate was shaken for five minutes in an orbital shaker at 700 rpm. Finally, the luminescence was measured by a PerkinElmer TopCount® Microplate Scintillation Counter. Such assays, carried out with a range of doses of test compounds, allow the determination of the cellular anti-antiproliferative IC50 of the compounds of the present invention.
(§2) The cellular antiproliferative assay were conducted side-by-side for Irinotecan (a FDA approved semisynthetic Camptothecin), and CY-700 (the first-in-class dual-functional semisynthetic Camptothecin/HDAC inhibitor), in 53 different cancer cell lines of breast cancer, renal cancer, non-small cell lung cancer, colon cancer, leukemia, multiple myeloma, ovarian cancer, prostate cancer, melanoma, and CNS cancer.
(Cellular ATP, detected with luciferase, serves as a proxy for viable cell number.)

The next data set concerns RXF 393. Kind of data set: In vitro anti-proliferation assay (ATPlite), RXF 393. The format is cell-based. Particulars: for IC50: Homo sapiens, Renal Cancer, RXF 393, 72 hours. On the procedure: as §1, §2
Another data set has as its system SK-MEL-5. The experiment in a line: In vitro anti-proliferation assay (ATPlite), SK-MEL-5. In kind it is cell-based. The following applies: for IC50: Homo sapiens, Melanoma, SK-MEL-5, 72 hours. On the procedure: as §1, §2
The subject of the next data set is T-47D. The experiment in a line: In vitro anti-proliferation assay (ATPlite), T-47D. The format is cell-based. The following applies: for IC50: Homo sapiens, T47D, Breast Cancer, T-47D, 72 hours. Here is the method:
as §1, §2

The test system of another data set is SF-268. Kind of data set: In vitro anti-proliferation assay (ATPlite), SF-268. In kind it is cell-based. The following applies: for IC50: Homo sapiens, CNS Cancer, SF-268, 72 hours. On the procedure:
as §1, §2

Another data set concerns MCF7. Kind of data set: In vitro anti-proliferation assay (ATPlite), MCF7. The format is cell-based. Particulars: for IC50: Homo sapiens, Breast Cancer, MCF7, 72 hours. On the procedure: as §1, §2
For another data set, the system named is SNB-75. The experiment in a line: In vitro anti-proliferation assay (ATPlite), SNB-75. The following applies: for IC50: Homo sapiens, CNS Cancer, SNB-75, 72 hours. In kind it is cell-based. Here is the method:
as §1, §2

In another data set the target is HDAC-1 (Homo sapiens, UniProt Q13547). Kind of data set: Inhibition of histone deacetylase enzymatic activity (Fluor-de-Lys), HDAC-1. The following applies: HDAC subtype HDAC-1. The format is biochemical. On the procedure:
The following assay protocol was used to assay the compounds of the invention against the HDAC enzymes (HDAC-1, 2, 3, 4, 5, 6, 7, 8, 9, 10, and 11.). […] The enzyme stock solution was 4 μg/mL in buffer. The compounds were pre-incubated (2 μl in DMSO diluted to […] in buffer for transfer to assay plate) with enzyme (20 μl of 4 μg/ml) for 10 minutes at room temperature (35 μl pre-incubation volume). The mixture was pre-incubated for 5 minutes at room temperature. The reaction was started by bringing the temperature to 37° C. and adding 15 μl substrate. Total reaction volume was 50 μl. […] Such assays, carried out with a range of doses of test compounds, allowed the determination of an approximate IC50 value.

A further data set relates to CCRF-CEM. Kind of data set: In vitro anti-proliferation assay (ATPlite), CCRF-CEM. In kind it is cell-based. The following applies: for IC50: Homo sapiens, Leukemia, CCRF-CEM, 72 hours. On the procedure:
as §1, §2

The subject of a further data set is SF-539. The experiment in a line: In vitro anti-proliferation assay (ATPlite), SF-539. The following applies: for IC50: Homo sapiens, CNS Cancer, SF-539, 72 hours. The format is cell-based. Here is the method: as §1, §2
For the next data set, the system named is NCI/ADR-RES. The experiment in a line: In vitro anti-proliferation assay (ATPlite), NCI/ADR-RES. Particulars: for IC50: Homo sapiens, Ovarian Cancer, NCI/ADR-RES, 72 hours. The format is cell-based. Here is the method:
as §1, §2

The subject of another data set is SNB-19. The experiment in a line: In vitro anti-proliferation assay (ATPlite), SNB-19. The format is cell-based. The following applies: for IC50: Homo sapiens, CNS Cancer, SNB-19, 72 hours. Here is the method: as §1, §2
Another data set has as its system CAKI-1. The experiment in a line: In vitro anti-proliferation assay (ATPlite), CAKI-1. In kind it is cell-based. Particulars: for IC50: Homo sapiens, Renal Cancer, CAKI-1, 72 hours. Here is the method: as §1, §2
Another data set has as its system NCI-H226. The experiment in a line: In vitro anti-proliferation assay (ATPlite), NCI-H226. In kind it is cell-based. Particulars: for IC50: Homo sapiens, NSCLC, NCI-H226, 72 hours. On the procedure: as §1, §2
The next data set concerns LOX IMVI. The experiment in a line: In vitro anti-proliferation assay (ATPlite), LOX IMVI. The format is cell-based. The following applies: for IC50: Homo sapiens, Melanoma, LOX IMVI, 72 hours. On the procedure: as §1, §2
The subject of another data set is OVCAR-8. Kind of data set: In vitro anti-proliferation assay (ATPlite), OVCAR-8. The format is cell-based. Particulars: for IC50: Homo sapiens, Ovarian Cancer, OVCAR-8, 72 hours. On the procedure:
as §1, §2

The subject of a further data set is BT-549. Kind of data set: In vitro anti-proliferation assay (ATPlite), BT-549. The format is cell-based. The following applies: for IC50: Homo sapiens, Breast Cancer, BT-549, 72 hours. On the procedure: as §1, §2
In data set [1] the test system is 53 different cancer cell lines. The experiment in a line: In vitro anti-proliferation assay (ATPlite), panel of 53 cancer cell lines. The format is cell-based. Particulars: among 53 cancer cell lines, side-by-side with Irinotecan. On the procedure: as §1, with “invention. […]” for “invention.”
Data set [2] can be described thus: In vitro activities (comparison in words, test not specified).
A short description of data set [3]: Solubility (comparison in words). In kind it is physicochemical.

Chain of HDAC-1 (Q13547 whole entry): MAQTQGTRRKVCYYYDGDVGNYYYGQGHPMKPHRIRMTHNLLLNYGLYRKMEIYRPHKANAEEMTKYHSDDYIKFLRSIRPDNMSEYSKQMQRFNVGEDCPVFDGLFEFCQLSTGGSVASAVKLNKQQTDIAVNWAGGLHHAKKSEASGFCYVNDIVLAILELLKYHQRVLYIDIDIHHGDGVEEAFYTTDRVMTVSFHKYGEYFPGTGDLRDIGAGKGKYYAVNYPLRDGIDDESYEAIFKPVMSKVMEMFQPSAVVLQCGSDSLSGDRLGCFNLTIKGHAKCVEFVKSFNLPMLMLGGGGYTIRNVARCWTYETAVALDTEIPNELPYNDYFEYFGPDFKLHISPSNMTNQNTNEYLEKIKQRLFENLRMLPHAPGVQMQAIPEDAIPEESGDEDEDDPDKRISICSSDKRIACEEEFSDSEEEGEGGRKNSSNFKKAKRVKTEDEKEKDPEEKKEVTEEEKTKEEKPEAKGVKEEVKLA

As usually defined, the IC50 is the concentration that inhibits the measured activity by half. Low readings indicate greater potency in that assay, high ones weaker potency in that assay. With `CCc1c2c(nc3ccc(OC(=O)N4CCC(N5CCCCC5)CC4)cc13)-c1cc3c(c(=O)n1C2)COC(=O)[C@]3(O)CC` [Irinotecan, reference compound], the IC50 amounted to 4.1 µM in the data set with U251; 33.6 µM with RXF 393; 11.4 µM in the data set on SK-MEL-5; 24.4 µM with T-47D; 3.9 µM in the data set with SF-268; 6.1 µM in the data set on MCF7. Besides, the IC50 with SNB-75 is 15.9 µM; with CCRF-CEM it was 3.5 µM; in the data set on SF-539, 5 µM; with NCI/ADR-RES, 42.2 µM; with SNB-19, 24.1 µM; with CAKI-1, 10.1 µM. Also, the IC50 in the data set on NCI-H226 was found to be 8.5 µM; in the data set on LOX IMVI it was 3.5 µM; with OVCAR-8, 17.2 µM; in the data set on BT-549, 18.5 µM. Also, the “HDAC-1 IC50 (result in words)” value on HDAC-1 (unit not given) is recorded as “No activity”.
Consider `CCc1c2c(nc3ccc(OCCCCCCC(=O)NO)cc13)-c1cc3c(c(=O)n1C2)COC(=O)[C@]3(O)CC` [CY-700], for which the IC50 with U251 amounted to 0.7 µM; with RXF 393, 2.3 µM; with SK-MEL-5 it was 1.3 µM; with T-47D, 2.1 µM; in the data set with SF-268, 0.5 µM; in the data set on MCF7 it was 0.5 µM. Further, the IC50 in the data set on SNB-75 stood at 2.3 µM; at HDAC-1 (Fluor-de-Lys substrate, approximate IC50) it was 0.019 µM; in the data set with CCRF-CEM, 0.4 µM; in the data set with SF-539, 0.6 µM; in the data set on NCI/ADR-RES, 5.1 µM; with SNB-19 it was 1.1 µM. Further, the IC50 stood at 0.7 µM in the data set with CAKI-1; 1.2 µM in the data set on NCI-H226; 0.7 µM in the data set on LOX IMVI; 2.7 µM in the data set with OVCAR-8; 2.6 µM in the data set with BT-549. Also, the Ratio with U251 (Irinotecan IC50 / CY-700 IC50, U251) is listed as 5.5; in the data set on RXF 393 (Irinotecan IC50 / CY-700 IC50, RXF 393) it was 14.7; with SK-MEL-5 (Irinotecan IC50 / CY-700 IC50, SK-MEL-5), 8.6; in the data set on T-47D (Irinotecan IC50 / CY-700 IC50, T-47D), 11.7; in the data set with SF-268 (Irinotecan IC50 / CY-700 IC50, SF-268) it was 7.4; with MCF7 (Irinotecan IC50 / CY-700 IC50, MCF7) it was 12.1. Also, the Ratio is 6.9 with SNB-75 (Irinotecan IC50 / CY-700 IC50, SNB-75); 9.7 in the data set on CCRF-CEM (Irinotecan IC50 / CY-700 IC50, CCRF-CEM); 8.9 in the data set on SF-539 (Irinotecan IC50 / CY-700 IC50, SF-539); 8.2 in the data set on NCI/ADR-RES (Irinotecan IC50 / CY-700 IC50, NCI/ADR-RES); 22.0 in the data set with SNB-19 (Irinotecan IC50 / CY-700 IC50, SNB-19); 15.3 with CAKI-1 (Irinotecan IC50 / CY-700 IC50, CAKI-1). In addition, the Ratio was found to be 7.2 in the data set on NCI-H226 (Irinotecan IC50 / CY-700 IC50, NCI-H226); 5.2 in the data set on LOX IMVI (Irinotecan IC50 / CY-700 IC50, LOX IMVI); 6.4 in the data set with OVCAR-8 (Irinotecan IC50 / CY-700 IC50, OVCAR-8); 7.0 with BT-549 (Irinotecan IC50 / CY-700 IC50, BT-549). The “number of cancer cell lines with better in vitro potency than Irinotecan” value in data set [1] is 47.
Take `CC[C@@]1(O)C(=O)OCc2c1cc1n(c2=O)Cc2cc3c(CN(C)C)c(OC(=O)N4CCN(c5ncc(C(=O)NO)cn5)CC4)ccc3nc2-1` [CY-705]: the “in vitro activities as compared to CY-700” value in data set [2] is reported as “comparable in vitro activities”. In [3], the “solubility as compared to CY-700” value was “significantly better solubility”.
